Holding throughout (assay type): cell-based
The target in assay [1] is IKZF2 (Homo sapiens, UniProt Q96SW2+Q9UKS7). In words: Prolabel quantification of IKZF2 protein levels in 293GT cells.
Assay [2] concerns the target IKZF1 (Homo sapiens, UniProt Q13422+Q96SW2). In words: Prolabel quantification of IKZF1 protein levels in 293GT cells. Particulars: Prolabel assay, read-out: IKZF1 EC50.
For assay [3], the target named is GSPT1 (Homo sapiens, UniProt P15170+Q96SW2). Briefly: Prolabel quantification of GSPT1 protein levels in 293GT cells. The note with it: Prolabel assay, read-out: GSPT1 EC50. On the procedure: The Prolabel system from DiscoverX was used to develop high-throughput and quantitative assays to measure changes in IKZF1, IKZF2 and GSPT1 protein levels in response to compounds. The prolabel tag was derived from the alpha fragment of beta galactosidase and has the following protein sequence: mssnslavvlqrrdwenpgvtqlnrlaahppfaswrnseeartdrpsqqlrslnge. The complementary fragment of beta-galactosidase (from DiscoverX), is added to the prolabel tag to form an active beta galactosidase enzyme whose activity can be precisely measured. In this way, the levels of a fusion protein with the prolabel tag can be quantified in cell lysates.
Chain of GSPT1 (P15170 whole entry, the tested form may be a part): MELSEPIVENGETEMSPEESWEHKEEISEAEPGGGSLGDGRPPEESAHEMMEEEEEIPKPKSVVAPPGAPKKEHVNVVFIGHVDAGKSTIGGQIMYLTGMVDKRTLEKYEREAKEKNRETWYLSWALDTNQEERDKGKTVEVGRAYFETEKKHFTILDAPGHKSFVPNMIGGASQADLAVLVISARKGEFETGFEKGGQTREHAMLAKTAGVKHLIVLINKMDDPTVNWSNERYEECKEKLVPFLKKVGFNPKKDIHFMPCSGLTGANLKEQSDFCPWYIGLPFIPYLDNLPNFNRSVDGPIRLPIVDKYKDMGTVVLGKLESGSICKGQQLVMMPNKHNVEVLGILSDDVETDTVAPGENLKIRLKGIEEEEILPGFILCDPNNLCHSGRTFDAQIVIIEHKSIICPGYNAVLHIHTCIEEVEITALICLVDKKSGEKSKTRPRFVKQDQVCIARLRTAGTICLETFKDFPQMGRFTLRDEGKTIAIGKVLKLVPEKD
Chain of GSPT1 (Q96SW2 whole entry, the tested form may be a part): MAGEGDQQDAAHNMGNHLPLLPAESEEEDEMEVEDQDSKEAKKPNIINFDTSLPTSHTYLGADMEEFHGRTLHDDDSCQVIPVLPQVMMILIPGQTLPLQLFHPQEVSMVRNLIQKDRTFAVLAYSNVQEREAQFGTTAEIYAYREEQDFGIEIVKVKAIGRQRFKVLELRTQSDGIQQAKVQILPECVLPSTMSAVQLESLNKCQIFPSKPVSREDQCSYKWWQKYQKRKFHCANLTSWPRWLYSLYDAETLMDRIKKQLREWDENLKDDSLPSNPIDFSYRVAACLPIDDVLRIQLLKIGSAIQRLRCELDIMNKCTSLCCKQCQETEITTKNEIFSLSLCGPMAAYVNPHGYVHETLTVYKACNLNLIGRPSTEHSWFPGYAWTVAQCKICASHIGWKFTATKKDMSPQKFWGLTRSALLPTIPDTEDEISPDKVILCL
Chain of GSPT1 (Q16531 whole entry partner, the tested form may be a part): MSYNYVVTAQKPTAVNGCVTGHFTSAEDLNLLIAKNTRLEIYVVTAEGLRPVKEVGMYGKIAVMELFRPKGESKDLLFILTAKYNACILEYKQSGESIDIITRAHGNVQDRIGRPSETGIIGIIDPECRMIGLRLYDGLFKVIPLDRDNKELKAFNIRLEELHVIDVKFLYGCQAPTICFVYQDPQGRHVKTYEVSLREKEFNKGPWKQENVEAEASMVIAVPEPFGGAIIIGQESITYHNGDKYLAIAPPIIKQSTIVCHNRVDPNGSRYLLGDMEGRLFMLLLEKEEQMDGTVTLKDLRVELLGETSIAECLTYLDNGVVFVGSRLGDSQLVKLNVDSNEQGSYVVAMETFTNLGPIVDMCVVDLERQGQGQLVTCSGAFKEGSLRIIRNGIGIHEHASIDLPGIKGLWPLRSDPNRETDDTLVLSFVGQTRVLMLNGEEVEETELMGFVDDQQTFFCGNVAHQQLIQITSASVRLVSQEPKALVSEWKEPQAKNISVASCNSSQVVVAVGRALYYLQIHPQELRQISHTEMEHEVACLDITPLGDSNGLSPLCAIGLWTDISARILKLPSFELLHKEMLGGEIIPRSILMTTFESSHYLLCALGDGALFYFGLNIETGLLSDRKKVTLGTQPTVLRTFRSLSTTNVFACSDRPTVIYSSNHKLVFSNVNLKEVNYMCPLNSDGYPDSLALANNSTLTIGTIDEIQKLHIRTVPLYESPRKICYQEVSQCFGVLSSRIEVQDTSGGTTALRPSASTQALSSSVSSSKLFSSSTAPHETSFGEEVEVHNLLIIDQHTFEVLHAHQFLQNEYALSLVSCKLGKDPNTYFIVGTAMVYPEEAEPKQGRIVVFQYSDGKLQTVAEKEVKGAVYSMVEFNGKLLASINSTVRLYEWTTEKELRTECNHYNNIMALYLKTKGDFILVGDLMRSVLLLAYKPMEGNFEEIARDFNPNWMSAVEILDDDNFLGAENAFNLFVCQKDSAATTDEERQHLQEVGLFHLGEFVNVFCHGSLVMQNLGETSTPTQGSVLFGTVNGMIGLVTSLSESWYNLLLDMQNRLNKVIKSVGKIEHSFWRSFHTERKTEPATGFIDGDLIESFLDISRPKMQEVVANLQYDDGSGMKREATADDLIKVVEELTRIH
Lentiviral vectors, based on the Invitrogen pLenti6.2/V5 DEST backbone, were constructed that placed the prolabel tag upstream of IKZF1, IKZF2 or GSPT1 and expressed the fusion protein from a CMV promoter.
To ensure moderate and consistent expression of the prolabel fusion proteins across all cells in the population, stable cell lines were constructed from cells expressing a single copy of the construct. Lentivirus packaged with the constructs was made using the Virapower kit from Invitrogen.
The levels of prolabel tagged fusion proteins in compound treated cell lines were measured as follows:
Day 1, Cells were diluted to 1.0×10^6 cells/ml in normal growth medium. 17.5 μL of cells were plated in each well of a solid white 384 well plate. Plates were incubated overnight in a 37° C. tissue culture incubator.
Day 2, Serial dilutions of compounds were made in 384 well plates from 10 mM stocks. 15 μL of DMSO was added to each well of a 384 well plate. In the first column 15 μL of stock compound was added. The solution was mixed and 15 μL was transferred to the next column. This was repeated until 20 two-fold dilutions were prepared. 2.5 μL of diluted compounds were transferred into 60 μL of cell culture medium in another 384 well plate, and mixed well. 2.5 μL of this mixture was added to the plated cells. The final DMSO concentration was 0.5% and the highest concentration of compound was 50 μM. Plates were incubated overnight (e.g., about 14 h, 18 h, or 24 h) in a 37° C. tissue culture incubator.
Day 3, Plates were removed from the incubator and allowed to equilibrate at rt for 30 minutes. Prolabel substrate (DiscoverX PathHunter Prolabel Detection Kit, User manual: 93-0180) was added as described by the manufacturers protocols. Plates were incubated at rt for three hours and luminescence was read using an Envision reader (Perkin Elmer) Data was analyzed and visualized using the Spotfire software package.

The mark [4] stands for this setting: 24 h, 10 μM, 24 h, 293GT cells; read-out: IKZF2 % protein reduction at 10 μM, 24 h.
Where [5] appears, read: Prolabel assay, 293GT cells; read-out: IKZF2 EC50.
[6] abbreviates: 10 μM, 24 h, 293GT cells; read-out: IKZF2 % protein reduction at 10 μM, 24 h.

Molecules are shown by their SMILES. Like-named read-outs stand apart in the source and are kept apart here.

Chain of IKZF2 (Q9UKS7 whole entry): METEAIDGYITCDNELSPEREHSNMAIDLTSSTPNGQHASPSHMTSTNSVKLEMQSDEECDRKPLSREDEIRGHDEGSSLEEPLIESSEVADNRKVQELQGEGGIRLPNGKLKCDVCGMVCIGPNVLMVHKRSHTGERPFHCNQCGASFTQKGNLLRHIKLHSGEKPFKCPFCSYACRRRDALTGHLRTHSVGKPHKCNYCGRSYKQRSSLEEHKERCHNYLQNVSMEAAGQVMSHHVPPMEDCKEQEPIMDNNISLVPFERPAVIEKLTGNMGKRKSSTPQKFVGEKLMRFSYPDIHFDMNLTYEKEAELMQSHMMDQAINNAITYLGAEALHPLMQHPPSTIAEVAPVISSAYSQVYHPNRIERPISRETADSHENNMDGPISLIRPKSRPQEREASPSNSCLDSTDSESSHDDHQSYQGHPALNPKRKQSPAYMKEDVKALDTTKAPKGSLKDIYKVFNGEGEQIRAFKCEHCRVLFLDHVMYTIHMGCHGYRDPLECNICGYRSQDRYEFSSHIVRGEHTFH
Chain of IKZF2 (Q96SW2 whole entry): as the sequence (Q96SW2 whole entry, the tested form may be a part) above
Chain of IKZF2 (Q16531 whole entry partner): as the sequence (Q16531 whole entry partner, the tested form may be a part) above
Chain of IKZF1 (Q13422 whole entry, the tested form may be a part): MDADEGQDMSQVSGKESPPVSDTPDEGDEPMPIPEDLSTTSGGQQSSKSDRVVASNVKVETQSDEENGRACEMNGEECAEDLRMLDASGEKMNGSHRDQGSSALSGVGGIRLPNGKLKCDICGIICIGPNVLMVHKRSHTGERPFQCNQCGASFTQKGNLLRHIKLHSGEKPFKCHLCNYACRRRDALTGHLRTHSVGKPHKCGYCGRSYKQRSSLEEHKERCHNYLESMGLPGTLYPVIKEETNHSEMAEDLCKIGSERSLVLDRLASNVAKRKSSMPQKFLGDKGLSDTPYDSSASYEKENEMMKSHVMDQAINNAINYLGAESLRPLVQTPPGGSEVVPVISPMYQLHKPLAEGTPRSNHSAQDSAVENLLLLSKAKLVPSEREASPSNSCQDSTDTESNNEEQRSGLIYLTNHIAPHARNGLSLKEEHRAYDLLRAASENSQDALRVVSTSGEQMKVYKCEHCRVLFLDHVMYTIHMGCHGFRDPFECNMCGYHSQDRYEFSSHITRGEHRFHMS
Chain of IKZF1 (Q96SW2 whole entry, the tested form may be a part): as the sequence (Q96SW2 whole entry, the tested form may be a part) above
Chain of IKZF1 (Q16531 whole entry partner, the tested form may be a part): as the sequence (Q16531 whole entry partner, the tested form may be a part) above

For the compound `CC(=O)Nc1ccc(CN2CCC(c3ccc4c(c3)CN(C3CCC(=O)NC3=O)C4=O)CC2)cc1` (stereo not drawn) [Compound I-86, N-(4-((4-(2-(2,6-dioxopiperidin-3-yl)-1-oxoisoindolin-5-yl)piperidin-1-yl)methyl)phenyl)acetamide], the inhibition at 10 µM in assay [1] (setting [4]) amounted to 75%. The figures for the DC50 in assay [1] (setting [5]), in assay [2] and in assay [3] were 0.029 µM, over 30 µM and over 30 µM, respectively.
For the compound `O=C1CCC(N2Cc3cc(C4CCN(CC5CCCc6ccccc65)CC4)ccc3C2=O)C(=O)N1` (stereo not drawn) [Compound I-168, 3-(1-oxo-5-(1-((1,2,3,4-tetrahydronaphthalen-1-yl)methyl)piperidin-4-yl)isoindolin-2-yl)piperidine-2,6-dione], the inhibition at 10 µM in assay [1] (setting [4]) worked out at 55%. In addition, the DC50 in assay [1] (setting [5]) is 0.014 µM; in assay [2], over 50 µM; in assay [3] it was over 50 µM.
Turning to `N#CCc1ccc(CN2CCC(c3ccc4c(c3)CN(C3CCC(=O)NC3=O)C4=O)CC2)cc1` (stereo not drawn) [Compound I-206, 2-(4-((4-(2-(2,6-dioxopiperidin-3-yl)-1-oxoisoindolin-5-yl)piperidin-1-yl)methyl)phenyl)acetonitrile], in assay [1] (setting [4]), the inhibition at 10 µM stood at 80%. Also, the DC50 in assay [1] (setting [5]) is 0.009 µM; in assay [2] it was over 30 µM; in assay [3], over 30 µM.
With `NC(=O)c1cccc(CN2CCC(c3ccc4c(c3)CN(C3CCC(=O)NC3=O)C4=O)CC2)c1` (stereo not drawn) [Compound I-139, 3-((4-(2-(2,6-dioxopiperidin-3-yl)-1-oxoisoindolin-5-yl)piperidin-1-yl)methyl)benzamide], the inhibition at 10 µM in assay [1] (setting [4]) is 70%. Also, the figures for the DC50 in assay [1] (setting [5]), in assay [2] and in assay [3] were 0.081 µM, over 30 µM and over 30 µM, respectively.
With `O=C1CCC(N2Cc3cc(C4CCN(Cc5cnc(N6CCOCC6)nc5)CC4)ccc3C2=O)C(=O)N1` (stereo not drawn) [Compound I-147, 3-(5-(1-((2-morpholinopyrimidin-5-yl)methyl)piperidin-4-yl)-1-oxoisoindolin-2-yl)piperidine-2,6-dione], the inhibition at 10 µM in assay [1] (setting [4]) came to 75%. Further, in assay [1] (Prolabel assay in HEK293GT cells, bar graph), the “IKZF2 protein levels as compared to the control (DMSO)” value is “decreased”. For the same compound, the DC50 in assay [1] (setting [5]) was 0.025 µM; in assay [2], over 30 µM; in assay [3] it was over 30 µM.
On to `Cc1ccccc1CN1CCC(c2ccc3c(c2)CN(C2CCC(=O)NC2=O)C3=O)CC1` (stereo not drawn) [Compound I-157, 3-(5-(1-(2-methylbenzyl)piperidin-4-yl)-1-oxoisoindolin-2-yl)piperidine-2,6-dione], for which, in assay [1] (setting [4]), the inhibition at 10 µM worked out at 55%. The results for the DC50 in assay [1] (setting [5]), in assay [2] and in assay [3] were 0.056 µM, over 50 µM and over 50 µM, respectively.
With `O=C1CCC(N2Cc3cc(C4CCN(Cc5cccc6c5CCCC6)CC4)ccc3C2=O)C(=O)N1` (stereo not drawn) [Compound I-164, 3-(1-oxo-5-(1-((5,6,7,8-tetrahydronaphthalen-1-yl)methyl)piperidin-4-yl)isoindolin-2-yl)piperidine-2,6-dione], in assay [1] (setting [4]), the inhibition at 10 µM amounted to 50%. For the same compound, the DC50 in assay [1] (setting [5]) was 0.018 µM; in assay [2], over 50 µM; in assay [3] it was over 50 µM.
With `O=C1CCC(N2Cc3cc(C4CCN(Cc5cc[nH]n5)CC4)ccc3C2=O)C(=O)N1` (stereo not drawn) [Compound I-118, 3-(5-(1-((1H-pyrazol-3-yl)methyl)piperidin-4-yl)-1-oxoisoindolin-2-yl)piperidine-2,6-dione], the inhibition at 10 µM in assay [1] (setting [4]) amounted to 55%. Moreover, the DC50 in assay [1] (setting [5]) was 0.065 µM; in assay [2], over 50 µM; in assay [3] it was over 50 µM.
As for `O=C1CCC(N2Cc3cc(C4CCN(Cc5ccc(OC(F)F)cc5)CC4)ccc3C2=O)C(=O)N1` (stereo not drawn) [Compound I-77, 3-(5-(1-(4-(difluoromethoxy)benzyl)piperidin-4-yl)-1-oxoisoindolin-2-yl)piperidine-2,6-dione], the inhibition at 10 µM in assay [1] (setting [4]) was 80%. Besides, the DC50 in assay [1] (setting [5]) was 0.007 µM; in assay [2] it was over 30 µM; in assay [3], over 30 µM.
Regarding `CC(C)(C)c1nc(CN2CCC(c3ccc4c(c3)CN(C3CCC(=O)NC3=O)C4=O)CC2)cs1` (stereo not drawn) [Compound I-143, 3-(5-(1-((2-(tert-butyl)thiazol-4-yl)methyl)piperidin-4-yl)-1-oxoisoindolin-2-yl)piperidine-2,6-dione], in assay [1] (setting [4]), the inhibition at 10 µM turned out to be 60%. Further, the DC50 in assay [1] (setting [5]) was 0.026 µM; in assay [2], over 30 µM; in assay [3], over 30 µM.
For the compound `CC(C)Oc1cccc(CN2CCC(c3ccc4c(c3)CN(C3CCC(=O)NC3=O)C4=O)CC2)c1` (stereo not drawn) [Compound I-108, 3-(5-(1-(3-isopropoxybenzyl)piperidin-4-yl)-1-oxoisoindolin-2-yl)piperidine-2,6-dione], the inhibition at 10 µM in assay [1] (setting [4]) is 65%. For the same compound, the DC50 in assay [1] (setting [5]) is 0.023 µM; in assay [2] it was over 30 µM; in assay [3], over 30 µM.
With `C[C@H]1CC(c2ccc3c(c2)CN(C2CCC(=O)NC2=O)C3=O)CCN1Cc1ccccc1` (stereo partly drawn) [Compound I-160, 3-(5-((2S)-1-benzyl-2-methylpiperidin-4-yl)-1-oxoisoindolin-2-yl)piperidine-2,6-dione], the inhibition at 10 µM in assay [1] (setting [4]) is 50%. For the same compound, the DC50 in assay [1] (setting [5]) is 0.018 µM; in assay [2], over 50 µM; in assay [3], over 50 µM.
Consider `Cc1ccc2c(CN3CCC(c4ccc5c(c4)CN(C4CCC(=O)NC4=O)C5=O)CC3)c[nH]c2c1` (stereo not drawn) [Compound I-149, 3-(5-(1-((6-methyl-1H-indol-3-yl)methyl)piperidin-4-yl)-1-oxoisoindolin-2-yl)piperidine-2,6-dione], for which the inhibition at 10 µM in assay [1] (setting [4]) was determined as 80%. Moreover, the DC50 in assay [1] (setting [5]) is 0.016 µM; in assay [2] it was over 30 µM; in assay [3], over 30 µM.
With `COC(=O)CN1CCC(c2ccc3c(c2)CN(C2CCC(=O)NC2=O)C3=O)CC1` (stereo not drawn) [Compound I-169, methyl 2-(4-(2-(2,6-dioxopiperidin-3-yl)-1-oxoisoindolin-5-yl)piperidin-1-yl)acetate], in assay [1] (setting [6]), the inhibition at 10 µM turned out to be 20%. In addition, the DC50 in assay [2] and in assay [3] was over 50 µM throughout.
As for `Cc1onc(-c2ccccc2)c1CN1CCC(c2ccc3c(c2)CN(C2CCC(=O)NC2=O)C3=O)CC1` (stereo not drawn) [Compound I-251, 3-(5-(1-((5-methyl-3-phenylisoxazol-4-yl)methyl)piperidin-4-yl)-1-oxoisoindolin-2-yl)piperidine-2,6-dione], in assay [1] (setting [4]), the inhibition at 10 µM is 60%. Further, the figures for the DC50 in assay [1] (setting [5]), in assay [2] and in assay [3] were 0.021 µM, over 30 µM and over 30 µM, respectively.
As to `O=C1CCC(N2Cc3cc(C4CCN(c5ccccc5)CC4)ccc3C2=O)C(=O)N1` (stereo not drawn) [Compound I-170, 3-(1-oxo-5-(1-phenylpiperidin-4-yl)isoindolin-2-yl)piperidine-2,6-dione], in assay [1] (setting [6]), the inhibition at 10 µM was found to be 5%. The DC50 in assay [2] and in assay [3] was over 50 µM throughout.
Take `O=C1CCC(N2Cc3cc(C4CCN(CC(F)(F)F)CC4)ccc3C2=O)C(=O)N1` (stereo not drawn) [Compound I-253, 3-(1-oxo-5-(1-(2,2,2-trifluoroethyl)piperidin-4-yl)isoindolin-2-yl)piperidine-2,6-dione]: the inhibition at 10 µM in assay [1] (setting [4]) is 0%. In addition, the DC50 in assay [1] (setting [5]), in assay [2] and in assay [3] was over 50 µM in each case.
Take `O=C1CCC(N2Cc3cc(C4CCN(Cc5ccc(F)cc5)CC4)ccc3C2=O)C(=O)N1` (stereo not drawn) [Compound I-112, 3-(5-(1-(4-fluorobenzyl)piperidin-4-yl)-1-oxoisoindolin-2-yl)piperidine-2,6-dione]: the inhibition at 10 µM in assay [1] (setting [4]) was determined as 63%. Further, the DC50 in assay [1] (setting [5]) is 0.007 µM; in assay [2], over 50 µM; in assay [3], over 50 µM.
With `COc1ccc(CN2CCC(c3ccc4c(c3)CN(C3CCC(=O)NC3=O)C4=O)CC2)cc1` (stereo not drawn) [Compound I-39, 3-(5-(1-(4-methoxybenzyl)piperidin-4-yl)-1-oxoisoindolin-2-yl)piperidine-2,6-dione], the inhibition at 10 µM in assay [1] (setting [6]) was determined as 45%. Moreover, the DC50 in assay [2] and in assay [3] was over 50 µM each time.
For `Cc1ccc(CN2CCC(c3ccc4c(c3)CN(C3CCC(=O)NC3=O)C4=O)CC2)cc1` (stereo not drawn) [Compound I-158, 3-(5-(1-(4-methylbenzyl)piperidin-4-yl)-1-oxoisoindolin-2-yl)piperidine-2,6-dione], the inhibition at 10 µM in assay [1] (setting [4]) amounted to 55%. Also, the DC50 in assay [1] (setting [5]) is 0.016 µM; in assay [2], over 50 µM; in assay [3], over 50 µM.

For the origin of these results see US11053218B2, “3-(1-oxoisoindolin-2-yl)piperidine-2,6-dione derivatives and uses thereof” (Novartis AG, priority 2017, dated 2021).
